Experimental data as given in patent US20240051938A1, “SELECTIVE BRD4-DEGRADER MOLECULES” (Regents of the University of Minnesota, priority 2022, published 2024).
Read-outs that look alike come from different tables or passages of the source. Peptide text beside a SMILES is read from it. * marks the point of attachment. Cbz = O=C(OCc1ccccc1)*

Experiments:
[1] = target: T1, BRD4 (Homo sapiens, UniProt O60885); details: BRD4 degradation, 6 hours, N = 1; for DC50: read-out: HEK293 (DC50)
Experimental: (§3) HEK293T cells were grown in a humidified 5% CO2 environment at 37° C. Cells were cultured in DMEM media (Corning) supplemented with 10% fetal-bovine serum (FBS, Cellgro), penicillin (50 IU/mL, Cellgro) and streptomycin (50 μg/mL, Cellgro). Once the adherent cells reached 85% confluency, the media was removed, and cells were treated with 0.25% trypsin/EDTA for 2 min. The trypsin was then neutralized, and the cells were pelleted by centrifugation (4000 g, 5 min) before resuspending in new media and subcultured at a 1:20 ratio.
(§4) HEK293T cells were seeded at 500,000 cells/well in a TC-treated 6-well plate and incubated in a 5% CO2 environment at 37° C. for 18 hours. […] Cells were dosed with compound for incubated times. Media was then removed and the cells were washed gently with cold PBS. To the plate was added 100 μL of RIPA buffer supplemented with 1X Roche cOmplete Mini protease inhibitor cocktail. Using a cell scraper, the cells were removed from the plate into the buffer. The cell lysate was then centrifuged at 14,000 rpm at 4° C. for 5 minutes before lysates were normalized by total soluble protein concentration using BCA protein assay kit (Peirce). Normalized samples were mixed with 4× NuPAGE LDS loading buffer (Invitrogen) and 10× reducing agent (Invitrogen), and heated at 95° C. for 10 minutes before separation on 3-8% Tris-Acetate gels. Proteins were transferred to PVDF membranes for 12 minutes on a BioRad Trans-Blot Turbo. Membranes were dried, cut, blocked in TBS-T containing 5% nonfat dry milk, and subsequently incubated with TB S-T containing 5% nonfat dry milk for 16 hours at 4° C. with an additional 2 hours at ambient temperature, with primary antibodies at dilutions listed below. After the membranes were washed five times with TBS-T, they were incubated with secondary antibodies for 2 h. at room temperature. Membranes were washed five times in TBS-T and treated with SuperSignal West Dura substrates (Thermo) for 1 minute and imaged using a LiCor Odyssey Fc. Membranes were then stained for total protein levels with SimplyBlue SafeStain (Invitrogen, Ref 465034) to confirm transfer and loading homogeneity.
(§5) The DCmax and DC50 values were determined via densitometry analysis from western blot data. Curve fitting analysis was conducted via non-linear regression using Graphpad PRISM.

[2] = target: T1, BRD4; test: cell-based; details: HEK293, read-out: HEK293 (Dmax)
Experimental: as §3, §4, §5

[3] = target: T2, BRD2 (Homo sapiens, UniProt P25440); details: cited from earlier work
[4] = target: T3, BRD3 (Homo sapiens, UniProt Q15059); details: cited from earlier work
[5] = target: T1, BRD4; test: Rescue of dBRD4-BD1-induced BRD4 degradation in MM.1S cells (competition experiments); format: cell-based; set-up: endogenous in cells; details: competition with dBRD4-BD1
Experimental: Western Blotting: MM.1S cells were seeded in 12-well plates at a density of 4×10^6 cells per well and treated with compounds for indicated times. Cells were transferred to 2 mL microcentrifuge tubes and harvested by low-speed centrifugation at 500×g. for 5 minutes. The well was rinsed, and the cell pellet washed twice with ice-cold PBS with centrifuging. The supernatant was carefully decanted, and the cell pellet was resuspended for lysis in 100 μL of RIPA buffer (ThermoFisher Scientific) supplemented with 1× cOmplete Mini Protease (Roche) and stored on ice for 10 minutes. After high-speed centrifugation (10 min at 10,000 X g.), protein concentrations were determined by the BCA assay (ThermoFisher Scientific) and normalized by total protein content. Normalized samples were mixed with 4× NuPAGE LDS loading buffer (Invitrogen) and 10× reducing agent (Invitrogen), and heated at 95° C. for 10 minutes before separation on 3-8% Tris-Acetate gels. Proteins were transferred to PVDF membranes for 12 minutes on a BioRad Trans-Blot Turbo. Membranes were dried, blocked in TBS-T containing 5% nonfat dry milk, and subsequently incubated with TBS-T containing 5% nonfat dry milk for 4 hours at room temperature, or 16 hours at 4° C., with primary antibodies at dilutions listed below. After the membranes were washed five times with TBS-T, they were incubated with secondary antibodies for 2 hours. at room temperature. Membranes were washed five times in TBS-T and treated with SuperSignal West Dura substrates (Thermo) for 1 minute and imaged using a LiCor Odyssey Fc.

[6] = target: T1, BRD4; test: Competition of MZ1-induced BRD4 degradation with pan-BD1 or pan-BD2 inhibitors; format: cell-based; set-up: endogenous in cells; host or cells: HEK293T; details: competition with pan-BET degrader MZ1
[7] = target: T4, 9xHis-BRD4-BD1 (Homo sapiens, UniProt O60885); test: AlphaScreen binding assay with His9-tagged BRD4-BD1 (1% DMSO); details: 1% v/v DMSO; mean of three independent trials in duplicate; read-out: BRD4-BD1 IC50 (apparent binding)
T4 construct: 30 nM for His9-tagged BRD4-BD1 bromodomain and 50 nM for the biotinylated peptide were used; made in house
Experimental: (B) Alphascreen binding assay with 9xHis-BRD4-BD1, reported as mean±SD of three independent trials performed in duplicate.
The AlphaScreen assay procedure for BRD4-BD1 bromodomain was adapted from the manufacturers protocol (PerkinElmer, USA). […] The biotinylated histone H4 KAc5,8,12,16 peptide was purchased from EpiCypher, with the sequence: Ac-SGRGK(Ac)GGK(Ac)GLGK(Ac)G-GAK(Ac)RHRKVLR-Peg(Biot). All reagents were diluted in the assay buffer (50 mM HEPES-Na+(ChemImpex), 100 mM NaCl (SigmaAldrich), 0.05% CHAPS (RPI), 0.1% BSA (SigmaAldrich), pH 7.4). The final assay concentrations (after the addition of all assay components) of 30 nM for His9-tagged BRD4-BD1 bromodomain and 50 nM for the biotinylated peptide were used. 3-fold serial dilutions were prepared with varying concentrations of the compounds and a fixed protein concentration, keeping the final DMSO concentration at 1% v/v. […] This was followed by the addition of 5 μL of the biotinylated peptide. 5 μL of nickel chelate acceptor beads and 5 μL of streptavidin donor beads were added to each well under low light conditions (<100 lux), to a final concentration of 20 μg/mL. The plate was sealed and incubated at room temperature in the dark for 1 hour. It was then read in AlphaScreen mode using a Tecan Spark plate reader. Each compound was run in two technical replicates, with at least three biological replicates.

[8] = target: T2, BRD2; test: Western blot BRD2 levels in MM.1S cells; format: cell-based
Experimental: (§1) FIG. 4A-4D: Degradation of BRD4 in MM.1S cells. (A) Representative blots for degradation of BRD4 after 24-hour treatment. (B) Quantified densitometry for three biological replicates of blots from (A). (C) Time-course study of BRD4 degradation by dBRD4-BD1. (D) Rescue of BRD4 degradation using pan-BD1, proteasome and neddylation inhibitors, but not pan-BD2 inhibitor, iBET-BD2.
(§2) Western Blotting: MM.1S cells were seeded in 12-well plates at a density of 4×10^6 cells per well and treated with compounds for indicated times. Cells were transferred to 2 mL microcentrifuge tubes and harvested by low-speed centrifugation at 500×g. for 5 minutes. The well was rinsed, and the cell pellet washed twice with ice-cold PBS with centrifuging. The supernatant was carefully decanted, and the cell pellet was resuspended for lysis in 100 μL of RIPA buffer (ThermoFisher Scientific) supplemented with 1× cOmplete Mini Protease (Roche) and stored on ice for 10 minutes. After high-speed centrifugation (10 min at 10,000 X g.), protein concentrations were determined by the BCA assay (ThermoFisher Scientific) and normalized by total protein content.

[9] = target: T3, BRD3; test: Western blot BRD3 levels in MM.1S cells; format: cell-based
Experimental: as §1, §2

[10] = target: T5, p38a kinase (Homo sapiens, UniProt Q16539); test: Western blot p38a levels in MM.1S cells; format: cell-based; details: 24-hour time-point or time-course study at 5 μM
T5 construct: endogenous in cells; host or cells: MM.1S
Experimental: as §1, §2

[11] = system: cMyc; test: Western blot cMyc expression in MM.1S cells; format: cell-based; details: compared with previously reported BRD4 degraders
Experimental: as §2

[12] = target: BRD4 (Homo sapiens, UniProt O60885+Q96SW2); test: TR-FRET ternary-complex formation; format: biochemical
[13] = system: MM.1S cells; test: 72 hour Alamar blue cytotoxicity assay of MM.1S cells; format: cell-based
Experimental: FIG. 5: 72 hour Alamar blue cytotoxicity assay of MM.1S cells with compounds. Data reported as mean±SD of three independent trials of three replicates each.
Viability Assays: MM. 1 S cells were seeded in 96-well plates at approximately 20 000 cells per well (0.05 mL) and dosed with increasing compound concentrations in the presence of DMSO with three technical replicates per concentration. After incubation for 69 hours at 37° C., 10 μL of the Alamar Blue reagent (Invitrogen) was added to each well and the plates were incubated for 3 hours at 37° C. Fluorescence was determined using a Synergy plate reader (BioTek, Ex.: 560 nm, Em.: 590 nm) and dose-response data were normalized to untreated and blank wells containing 0.05% DMSO in cell culture media. Data analysis was performed using GraphPad Prism.

[14] = target: T1, BRD4; test: Western blot BRD4 degradation in MM.1S cells; format: cell-based; set-up: endogenous in cells
Description: as §1
The mixed suspension/adherent cells were subcultured at a 1:10 dilution by decanting suspended cells and dissociating adherent cells from plates in 0.25% trypsin/EDTA (Gibco) with 2 min incubation times. Cell-line authenticity was verified using the short-tandem-repeat (STR)-profiling service provided by ATCC.
as §2

[15] = target: T1, BRD4; test: Western blot BRD4 degradation in MV411 cells; format: cell-based; set-up: endogenous in cells; details: 6 hours, N = 1
[16] = Solubility observed in AlphaScreen assay; details: required increased DMSO (1% v/v) in assay

T2 sequence (P25440 whole entry): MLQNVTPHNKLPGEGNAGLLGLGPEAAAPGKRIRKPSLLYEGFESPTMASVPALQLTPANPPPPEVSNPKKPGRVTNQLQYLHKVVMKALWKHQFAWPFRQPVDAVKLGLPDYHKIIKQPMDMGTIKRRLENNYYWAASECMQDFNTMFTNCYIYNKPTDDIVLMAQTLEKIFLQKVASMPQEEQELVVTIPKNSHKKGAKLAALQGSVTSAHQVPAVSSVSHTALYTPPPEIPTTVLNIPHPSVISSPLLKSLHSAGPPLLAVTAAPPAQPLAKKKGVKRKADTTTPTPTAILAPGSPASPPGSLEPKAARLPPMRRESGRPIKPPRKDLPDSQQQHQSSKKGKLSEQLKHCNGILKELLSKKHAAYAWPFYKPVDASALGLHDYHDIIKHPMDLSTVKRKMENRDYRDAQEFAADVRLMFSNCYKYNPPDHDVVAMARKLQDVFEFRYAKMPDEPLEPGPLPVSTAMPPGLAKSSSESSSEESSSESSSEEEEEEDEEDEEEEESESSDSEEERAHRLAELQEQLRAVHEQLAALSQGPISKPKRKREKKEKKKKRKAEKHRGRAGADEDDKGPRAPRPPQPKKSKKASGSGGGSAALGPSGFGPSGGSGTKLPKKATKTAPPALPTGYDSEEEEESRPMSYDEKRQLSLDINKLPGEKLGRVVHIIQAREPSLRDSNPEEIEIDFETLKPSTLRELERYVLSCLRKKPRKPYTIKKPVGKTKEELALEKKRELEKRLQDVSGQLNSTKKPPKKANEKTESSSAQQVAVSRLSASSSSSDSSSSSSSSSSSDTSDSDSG
T3 sequence (Q15059 whole entry): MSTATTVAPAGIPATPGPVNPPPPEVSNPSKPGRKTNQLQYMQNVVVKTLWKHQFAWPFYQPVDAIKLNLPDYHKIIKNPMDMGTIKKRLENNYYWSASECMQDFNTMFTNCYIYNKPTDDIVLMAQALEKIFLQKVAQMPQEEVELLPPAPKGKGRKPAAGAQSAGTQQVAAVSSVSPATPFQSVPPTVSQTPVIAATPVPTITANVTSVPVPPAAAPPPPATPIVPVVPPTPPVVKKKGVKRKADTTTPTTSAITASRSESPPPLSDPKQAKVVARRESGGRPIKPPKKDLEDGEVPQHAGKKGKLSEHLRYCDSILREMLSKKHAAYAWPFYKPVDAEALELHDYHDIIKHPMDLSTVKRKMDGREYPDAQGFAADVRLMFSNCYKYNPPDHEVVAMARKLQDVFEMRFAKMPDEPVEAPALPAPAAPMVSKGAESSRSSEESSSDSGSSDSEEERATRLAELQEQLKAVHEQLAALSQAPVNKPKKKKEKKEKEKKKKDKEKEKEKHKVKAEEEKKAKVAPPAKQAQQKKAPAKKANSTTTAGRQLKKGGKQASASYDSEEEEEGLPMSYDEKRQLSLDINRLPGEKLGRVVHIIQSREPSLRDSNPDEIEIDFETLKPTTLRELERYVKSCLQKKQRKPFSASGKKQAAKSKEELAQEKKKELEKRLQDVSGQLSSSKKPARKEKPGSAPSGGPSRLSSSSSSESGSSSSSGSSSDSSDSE
T5 sequence (Q16539 whole entry): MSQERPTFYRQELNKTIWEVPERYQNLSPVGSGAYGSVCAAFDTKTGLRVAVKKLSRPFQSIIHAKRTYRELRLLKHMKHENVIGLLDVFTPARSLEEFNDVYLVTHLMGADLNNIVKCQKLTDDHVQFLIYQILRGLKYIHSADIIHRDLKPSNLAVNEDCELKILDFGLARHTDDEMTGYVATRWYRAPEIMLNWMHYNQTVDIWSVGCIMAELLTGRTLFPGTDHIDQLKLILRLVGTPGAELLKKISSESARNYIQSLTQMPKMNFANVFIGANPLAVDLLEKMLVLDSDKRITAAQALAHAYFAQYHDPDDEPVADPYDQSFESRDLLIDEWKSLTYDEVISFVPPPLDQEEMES
Sequence of BRD4 (Homo sapiens, UniProt O60885+Q96SW2) (Q96SW2 whole entry, one chain of several): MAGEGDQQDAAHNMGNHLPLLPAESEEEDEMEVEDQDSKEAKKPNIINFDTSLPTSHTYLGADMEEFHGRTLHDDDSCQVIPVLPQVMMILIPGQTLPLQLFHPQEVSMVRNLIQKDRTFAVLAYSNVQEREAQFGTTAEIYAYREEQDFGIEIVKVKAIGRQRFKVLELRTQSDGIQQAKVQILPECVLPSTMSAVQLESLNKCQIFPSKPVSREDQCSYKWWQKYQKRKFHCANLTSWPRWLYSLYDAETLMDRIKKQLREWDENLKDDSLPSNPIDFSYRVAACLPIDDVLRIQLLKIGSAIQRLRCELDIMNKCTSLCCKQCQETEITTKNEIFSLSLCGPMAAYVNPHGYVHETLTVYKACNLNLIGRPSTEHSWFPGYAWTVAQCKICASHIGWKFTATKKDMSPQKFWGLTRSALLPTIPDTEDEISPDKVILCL

Cc1ccc(C(C)C)cc1Oc1nccc(-c2c(-c3ccc(C(F)(F)F)cc3)ncn2C2CCN(CCNC(=O)COc3cccc4c3C(=O)N(C3CCC(=O)NC3=O)C4=O)CC2)n1 (centres unmarked) [Example 6]
DC50 [1]: 810 nM | Dmax [2]: 95%

COC(=O)C[C@@H]1N=C(c2ccc(Cl)cc2)c2c(sc(C(=O)NCCCCCNc3cccc4c3C(=O)N(C3CCC(=O)NC3=O)C4=O)c2C)-n2c(C)nnc21 (some centres unmarked) [ZXH-3-26]
concentration of BRD2 upon BRD4 degradation [3]: remain unchanged | concentration of BRD3 upon BRD4 degradation [4]: remain unchanged

Cc1ccc(C(C)C)cc1Oc1nccc(-c2c(-c3ccc(C(F)(F)F)cc3)ncn2C2CCN(CCOCCOCCNC(=O)CN(C)c3cccc4c3C(=O)N(C3CCC(=O)NC3=O)C4=O)CC2)n1 (centres unmarked) [Example 4]
DC50 [1]: 105 nM | Dmax [2]: 84%

CC(C)C[C@@H](C=O)NC(=O)[C@H](CC(C)C)NC(=O)[C@H](CC(C)C)NC(=O)OCc1ccccc1 [MG-132] (Cbz-Leu-Leu-Leu-aldehyde)
rescue of BRD4 degradation by dBRD4-BD1 [5]: rescue of BRD4 degradation was observed

Cc1ccc(C(C)C)cc1Oc1nccc(-c2c(-c3ccc(C(F)(F)F)cc3)ncn2C2CCN(CCOCCOCCNC(=O)CNc3cccc4c3C(=O)N(C3CCC(=O)NC3=O)C4=O)CC2)n1 (centres unmarked) [Example 5]
DC50 [1]: 290 nM | Dmax [2]: 60%

CC(=O)Nc1c(F)cc(C(=O)N[C@H]2CC[C@H](O)CC2)cc1O[C@@H](C)c1ccccc1 [iBET-BD2]
rescue of BRD4 degradation by dBRD4-BD1 [5]: no effect | prevention of MZ1-induced BRD4 degradation by competitor [6]: neither BD1 nor BD2 inhibition was able to prevent BRD4 degradation

Cc1ccc(C(C)C)cc1Oc1nccc(-c2c(-c3ccc(C(F)(F)F)cc3)ncn2C2CCN(CCOCCOCCNC(=O)COc3cccc4c3C(=O)N(C3CCC(=O)NC3=O)C4=O)CC2)n1 (centres unmarked) [dBRD4-BD1]
IC50 [7]: 1360 nM | BRD2 level at concentrations where BRD4 was degraded [8]: upregulated | degradation of BRD2 ([8]; 24-hour treatment): not observed | BRD3 level at concentrations where BRD4 was degraded [9]: upregulated | degradation of BRD3 ([9]; 24-hour treatment): not observed | degradation of p38a [10]: not observed | effect on cMyc expression [11]: weaker effect on cMyc expression | ternary-complex formation by TR-FRET [12]: moderate ternary-complex formation | cytotoxicity [13]: lower observed cytotoxicity | HEK293 (Dmax) [1]: 100% | DC50 [1]: 500 nM | BRD4 degradation Dmax ([14]; 24-hour treatment): 23% | DC50 ([14]; 24-hour treatment): 280 nM | concentration above which BRD4 degradation diminished (hook effect) ([14]; 24-hour treatment): > 5 µM | time to maximal BRD4 degradation ([14]; time-course study at 5 μM): 8 h | DC50 [15]: 14 nM | MV411 (Dmax) [15]: 85% | solubility [16]: poor solubility

CC(=O)N[C@H](C(=O)N1C[C@H](O)C[C@H]1C(=O)NCc1ccc(-c2scnc2C)cc1)C(C)(C)SCCCCCCNC(=O)C[C@@H]1N=C(c2ccc(Cl)cc2)c2c(sc(C)c2C)-n2c(C)nnc21 [AT1]
concentration of BRD2 upon BRD4 degradation [3]: remain unchanged | concentration of BRD3 upon BRD4 degradation [4]: remain unchanged

NS(=O)(=O)OC[C@@H]1C[C@@H](n2ccc3c(N[C@H]4CCc5ccccc54)ncnc32)C[C@@H]1O [MLN4924]
rescue of BRD4 degradation by dBRD4-BD1 [5]: rescue of BRD4 degradation was observed
